Source: patent US7115750B1, “Melanin concentrating hormone antagonist” (Takeda Pharmaceutical Company Limited, priority 1999, dated 2006)

Row | Compound | melting point
1 | CNc1ccc(-c2ccc(C(=O)Nc3ccc4c(c3)CCC(CN(C)C)C4)cc2)cc1 (stereo not drawn) [Example 38, N-[6-[(N,N-Dimethylamino)methyl]-5,6,7,8-tetrahydro-2-naphthalenyl]-4′-(methylamino)[1,1′-biphenyl]-4-carboxamide] | 163 to 165 °C
2 | CN(C)CC1CCc2cc(NC(=O)c3ccc(-c4ccc(C(=O)O)cc4)cc3)ccc2C1 (stereo not drawn) [Example 40, 4′-[[[6-[(N,N-Dimethylamino)methyl]-5,6,7,8-tetrahydro-2-naphthalenyl]amino]carbonyl][1,1′-biphenyl]-4-carboxylic acid] | 143 °C (dec.)
3 | CN(C)CC1=Cc2ccc(NC(=O)c3ccc(-c4ccc(Cl)cc4)cc3)cc2CC1 [Example 41, 4′-Chloro-N-[6-[(N,N-dimethyl)methyl]-7,8-dihydro-2-naphthalenyl][1,1′-biphenyl]-4-carboxamide] | 204 to 207 °C
4 | CN(C)CC1=Cc2ccc(NC(=O)c3ccc(-c4ccc(F)cc4)cc3)cc2CC1 [Example 42, 4′-Fluoro-N-[6-[(N,N-dimethylamino)methyl]-7,8-dihydro-2-naphthalenyl][1,1′-biphenyl]-4-carboxamide] | 190 to 193 °C
5 | CN(C)CC1Cc2ccc(NC(=O)c3ccc(-c4ccc(Cl)cc4)cc3)cc2C1 (stereo not drawn) [Example 43, 4′-Chloro-N-[2-[(dimethylamino)methyl]-2,3-dihydro-1H-inden-5-yl][1,1′-biphenyl]-4-carboxamide] | 192 to 194 °C
6 | CN(C)CC1CCCc2cc(NC(=O)c3ccc(-c4ccc(F)cc4)cc3)ccc2C1 (stereo not drawn) [Example 45, 4′-Fluoro-N-[6-[(dimethylamino)methyl]-6,7,8,9-tetrahydro-5H-benzo[a]cyclohepten-2-yl][1,1′-biphenyl]-4-carboxamide] | 167 to 169 °C
7 | CN(C)CC1CCCc2cc(NC(=O)c3ccc(-c4ccc(Cl)cc4)cc3)ccc2C1 (stereo not drawn) [Example 46] | 173 to 175 °C
8 | CN(C)CC1=Cc2ccc(NC(=O)c3ccc(-c4ccccc4)cc3)cc2CC1 [Example 47, N-[6-[(Dimethylamino)methyl]-7,8-dihydro-2-naphthalenyl][1,1′-biphenyl]-4-carboxamide] | 173 to 175 °C
9 | CN(C)CC1=Cc2ccc(NC(=O)c3ccc(-c4ccccc4Cl)cc3)cc2CC1 [Example 50, 2′-Chloro-N-[6-[(dimethylamino)methyl]-7,8-dihydro-2-naphthalenyl][1,1′-biphenyl]-4-carboxamide] | 145 to 147 °C
10 | O=C(Nc1ccc2c(c1)CCC(CN1CCCCC1)C2)c1ccc(-c2ccc(F)cc2)cc1 (stereo not drawn) [Example 54, 4′-Fluoro-N-[6-(1-piperidinylmethyl)-5,6,7,8-tetrahydro-2-naphthalenyl][1,1′-biphenyl]-4-carboxamide] | 179 to 181 °C
11 | O=C(Nc1ccc2c(c1)CCC(CN1CCCCC1)C2)C1CC(=O)N(c2ccccc2)C1 (stereo not drawn) [Example 56, 5-Oxo-1-phenyl-N-[6-(1-piperidinylmethyl)-5,6,7,8-tetrahydro-2-naphthalenyl]-3-pyrrolidinecarboxamide] | 162 to 164 °C
12 | Cc1ccc(-c2ccc(C(=O)Nc3ccc4c(c3)CCC(CN(C)C)=C4)cc2)cc1 [Example 85] | 195 to 196 °C
13 | O=C(Nc1ccc2c(c1)CCC(CN1CCCC1)=C2)c1ccc(-c2ccc(F)cc2F)nc1 [Example 87, 6-(2,4-Difluorophenyl)-N-[6-[(1-pyrrolidinyl)methyl]-7,8-dihydro-2-naphthalenyl]nicotinamide] | 169 to 170 °C
14 | O=C(Nc1ccc2c(c1)CCC(CN1CCCC1)=C2)c1ccc(-c2ccccc2)cc1 [Example 94, N-[6-(1-Pyrrolidinylmethyl)-7,8-dihydro-2-naphthalenyl][1,1′-biphenyl]-4-carboxamide] | 176 to 177 °C
15 | O=C(Nc1ccc2c(c1)CCC(CN1CCCC1)=C2)c1ccc(-c2ccc(F)cc2)cc1 [Example 95, 4′-Fluoro-N-[6-(1-pyrrolidinylmethyl)-7,8-dihydro-2-naphthalenyl][1,1′-biphenyl]-4-carboxamide] | 189 to 192 °C
